From US8282968B2, “Bioactive water fraction from Gomphostemma niveum” (The Director General, Defence Research and Development …, priority 2005, dated 2012)

System: P. falciparum
Experiment: In vitro evaluation of anti-malarial activity (schizont maturation inhibition)
Format: cell-based
Conditions: Plasmodium falciparum, 24 h
From the text: All the tests are run in duplicates with in 96 well flat bottomed tissue culture plate and double dilutions are made for each of the test compound with individual control wells only with the RPMI 1640 and human serum supplement.

- IC90: 46 nM
Compound: CCN(CC)CCCC(C)Nc1ccnc2cc(Cl)ccc12 (stereo not shown) [Chloroquine]
